Data reported in patent US7718638B2, “(20R)-23,23-difluoro-2-methylene-19-nor-bishomopregnacalciferol-vitamin D analogs” (Wisconsin Alumni Research Foundation, priority 2007, dated 2010).
pEC50, pKi: −log10 of the molar value. “Also recorded” adds a separate entry of the source.

Key:
HL-60 cells = test: HL-60 cell differentiation (nitro blue tetrazolium reduction); type: cell-based, human; details: FIG. 2; for pEC50: HL-60 cells, 4 days
Description: The study drugs were dissolved in ethanol and the concentrations determined using UV spectrophotometry. Serial dilutions were prepared so that a range of drug concentrations could be tested without changing the final concentration of ethanol (≦0.2%) present in the cell cultures.
Human promyelocytic leukemia (HL60) cells were grown in RPMI-1640 medium containing 10% fetal bovine serum. The cells were incubated at 37° C. in the presence of 5% CO2.
HL60 cells were plated at 1.2×10^5 cells/ml. Eighteen hours after plating, cells in duplicate were treated with drug. Four days later, the cells were harvested and a nitro blue tetrazolium reduction assay was performed (Collins et al., 1979; J. Exp. Med. 149:969-974). The percentage of differentiated cells was determined by counting a total of 200 cells and recording the number that contained intracellular black-blue formazan deposits. Verification of differentiation to monocytic cells was determined by measuring phagocytic activity (data not shown).

Sprague-Dawley rats [1] = test: Bone calcium mobilization (serum calcium) in vitamin D-deficient rats; type: in vivo, rat; details: FIG. 4; for bone calcium mobilization (serum calcium levels): dose not given, vitamin D-deficient rats on 0.02% Ca diet; for bone calcium mobilization: rats on 0.02% Ca diet
Description: (§1) Intestinal Calcium Transport and Bone Calcium Mobilization
(§2) Male, weanling Sprague-Dawley rats were placed on Diet 11 (0.47% Ca) diet+AEK oil for one week followed by Diet 11 (0.02% Ca)+AEK oil for 3 weeks. The rats were then switched to a diet containing 0.47% Ca for one week followed by two weeks on a diet containing 0.02% Ca. Dose administration began during the last week on 0.02% calcium diet. Four consecutive ip doses were given approximately 24 hours apart. Twenty-four hours after the last dose, blood was collected from the severed neck and the concentration of serum calcium determined as a measure of bone calcium mobilization. The first 10 cm of the intestine was also collected for intestinal calcium transport analysis using the everted gut sac method.

Sprague-Dawley rats [2] = test: Intestinal calcium transport (everted gut sac) in vitamin D-deficient rats; type: in vivo, rat; details: FIG. 5; for intestinal calcium transport: everted gut sac
Description: as §1, §2

[3] = target: T1, full-length recombinant rat vitamin D receptor (Rattus norvegicus, UniProt P13053); test: Vitamin D receptor competitive binding with [3H]-1,25(OH)2D3; details: FIG. 1
T1 construct: Full-length recombinant rat receptor was expressed in E. coli; histidine tag (C); made in house; host or cells: E. coli BL21 (DE3) Codon Plus RIL
T1 sequence (P13053 1-423): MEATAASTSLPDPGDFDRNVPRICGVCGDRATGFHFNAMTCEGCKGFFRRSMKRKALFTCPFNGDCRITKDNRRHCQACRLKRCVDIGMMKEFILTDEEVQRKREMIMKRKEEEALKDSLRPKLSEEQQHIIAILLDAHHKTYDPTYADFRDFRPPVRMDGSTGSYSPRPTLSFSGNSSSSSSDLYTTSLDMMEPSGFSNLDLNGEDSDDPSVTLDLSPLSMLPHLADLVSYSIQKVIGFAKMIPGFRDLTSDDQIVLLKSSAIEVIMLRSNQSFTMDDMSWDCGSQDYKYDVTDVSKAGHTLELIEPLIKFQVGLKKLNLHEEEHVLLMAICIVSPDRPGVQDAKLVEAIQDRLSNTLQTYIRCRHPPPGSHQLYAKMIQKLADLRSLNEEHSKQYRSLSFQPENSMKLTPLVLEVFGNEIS
Source text: Vitamin D Receptor Binding
Full-length recombinant rat receptor was expressed in E. coli BL21 (DE3) Codon Plus RIL cells and purified to homogeneity using two different column chromatography systems. The first system was a nickel affinity resin that utilizes the C-terminal histidine tag on this protein. The protein that was eluted from this resin was further purified using ion exchange chromatography (S-Sepharose Fast Flow). Aliquots of the purified protein were quick frozen in liquid nitrogen and stored at −80° C. until use. For use in binding assays, the protein was diluted in TEDK50 (50 mM Tris, 1.5 mM EDTA, pH 7.4, 5 mM DTT, 150 mM KCl) with 0.1% Chaps detergent. The receptor protein and ligand concentration were optimized such that no more than 20% of the added radiolabeled ligand was bound to the receptor.
Radiolabeled and unlabeled ligands were added to 100 mcl of the diluted protein at a final ethanol concentration of ≦10%, mixed and incubated overnight on ice to reach binding equilibrium. The following day, 100 mcl of hydroxylapatite slurry (50%) was added to each tube and mixed at 10-minute intervals for 30 minutes. […] After the final wash, the pellets were transferred to scintillation vials containing 4 ml of Biosafe II scintillation cocktail, mixed and placed in a scintillation counter. Total binding was determined from the tubes containing only radiolabeled ligand.

[4] = test system: 24-hydroxylase (24Ohase) gene promoter in ROS 17/2.8 (bone) cells; test: In vitro transcription assay (24-hydroxylase promoter luciferase reporter); type: cell-based; details: FIG. 3
Description: In Vitro Transcription Assay
Transcription activity was measured in ROS 17/2.8 (bone) cells that were stably transfected with a 24-hydroxylase (24Ohase) gene promoter upstream of a luciferase reporter gene (Arbour et al., 1998). Cells were given a range of doses. Sixteen hours after dosing the cells were harvested and luciferase activities were measured using a luminometer.
RLU=relative luciferase units.

| SMILES | pEC50 (HL-60 cells) | bone calcium mobilization (serum calcium levels) (Sprague-Dawley rats [1]) | intestinal calcium transport (Sprague-Dawley rats [2]; 87 pmol/day) | pKi ([3]; full-length recombinant rat VDR, read-out: Ki, competition with [3H]-1,25(OH)2D3 for binding to the vitamin D receptor) | binding to the vitamin D receptor as compared to 1,25-(OH)2D3 ([3]; in words) | pEC50 (HL-60 cells; Homo sapiens, 96 h) | potency on HL-60 cell differentiation as compared to 1,25(OH)2D3 (HL-60 cells; in words) | pEC50 ([4]; ROS 17/2.8 cells, 24Ohase-luciferase, 16 h, read-out: EC50, transcriptional activity in bone cells) | transcriptional activity in bone cells as compared to 1α,25-dihydroxyvitamin D3 ([4]; in words) | bone calcium mobilization (Sprague-Dawley rats [1]; 2340 pmol/day ip for 4 consecutive days) | bone calcium mobilization (Sprague-Dawley rats [1]; 35100 pmol/day ip for 4 consecutive days) | intestinal calcium transport (Sprague-Dawley rats [2]; 2340 pmol/day) | intestinal calcium transport (Sprague-Dawley rats [2]; 35100 pmol/day) | intestinal calcium transport activity as compared to 1,25(OH)2D3 (Sprague-Dawley rats [2]; in words, dose not stated) |
| --- | --- | --- | --- | --- | --- | --- | --- | --- | --- | --- | --- | --- | --- | --- |
| C=C1/C(=C\C=C2/CCC[C@]3(C)[C@@H]([C@H](C)CCCC(C)(C)O)CC[C@@H]23)C[C@@H](O)C[C@@H]1O [1,25(OH)2D3, 1α,25-dihydroxyvitamin D3, reference compound] | 8.70 | increased serum calcium levels | promotes a significant increase | – | – | – | – | – | – | – | – | – | – | – |
| C=C1[C@H](O)CC(=C/C=C2\CCC[C@]3(C)[C@@H]([C@@H](C)CC(F)F)CC[C@@H]23)C[C@H]1O [FF-44, (20R)-23,23-difluoro-1α-hydroxy-2-methylene-19-nor-bishomopregnacalciferol] | – | very little bone calcium mobilization activity; also recorded: little, if any, activity in mobilizing calcium from bone | – | 9.70 | bound almost equally | 7.00 | almost as potent as 1,25(OH)2D3 | 8.00 | about the same transcriptional activity | did not result in mobilization of bone calcium | without any effect | does not promote intestinal calcium transport | no significant intestinal calcium transport activity | very little activity |
